“And” between values parts separate entries of the source, which are not always exact repeats. Equal values may be shown once.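 The compound was tested at five concentrations on cells cultured in 96-well plates, with a 48-hour exposure period. Abbreviation: GI50, concentration required for 50% inhibition of growth. TGI marks complete inhibition of growth.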

The values below come from PubChem BioAssay (NCI).

Some test systems named below: SW-620 colon; OVCAR-8 ovarian; NCI-H522 lung; HCC-2998 colon; HL-60(TB) leukemia; NCI-H460 lung; SF-268 CNS; U251 CNS; PC-3 prostate.
Assay in all cases: DTP human tumour cell line panel, 48 h

As usually defined, the TGI is the concentration giving total growth inhibition. A high value points to lower sensitivity of the cells. A word on the GI50: it is the concentration giving 50% growth inhibition. `CCCCOC(=O)CNC(=O)OC/C=C/C#CC#C/C=C/COC(=O)NCC(=O)OCCCC`: the concentration for total growth inhibition (TGI) in the test on SW-620 colon, with OVCAR-8 ovarian, in the test on NCI-H522 lung, with HCC-2998 colon, in the test with HL-60(TB) leukemia and in the test with NCI-H460 lung was more than 100 µM in each case. For the same compound, the TGI with SF-268 CNS and in the test with U251 CNS was more than 100 µM throughout. Moreover, the GI50 in the test with OVCAR-8 ovarian, in the test with NCI-H522 lung, in the test with HCC-2998 colon, in the test on HL-60(TB) leukemia, with NCI-H460 lung and in the test with SF-268 CNS was more than 100 µM throughout. Further, the GI50 with U251 CNS was more than 100 µM.

Turning to `O=[N+]([O-])c1cccc(C2=NN(c3ccccc3)C[N+](c3ccc(Br)cc3)=N2)c1`, the TGI in the test with SW-620 colon, in the test with OVCAR-8 ovarian, in the test on NCI-H522 lung, in the test with HCC-2998 colon, in the test on NCI-H460 lung and with SF-268 CNS was more than 100 µM in each case. The same compound came in with a TGI in the test with U251 CNS of more than 100 µM.

`O=c1/c(=C/c2ccccc2[N+](=O)[O-])sc2nnc(-c3ccco3)n12`: the TGI in the test with SW-620 colon stood at 46.8 µM; with OVCAR-8 ovarian, 32.5 µM; in the test on NCI-H522 lung, 32.9 µM; in the test with HCC-2998 colon it was 43.4 µM; in the test on HL-60(TB) leukemia, 58.4 µM; in the test with NCI-H460 lung it was 56.2 µM. For the same compound, the TGI with SF-268 CNS was 46.3 µM; in the test with U251 CNS it was 36.6 µM.

For `COc1cc(Nc2ncccc2C(=O)NCc2cn(Cc3cccc(Oc4ccccc4)c3)nn2)cc(OC)c1`, the GI50 in the test on SW-620 colon was 3.88 µM; with OVCAR-8 ovarian it was 5.96 µM; in the test on PC-3 prostate it was 4.74 µM; in the test with NCI-H522 lung it was 3.31 µM; with HCC-2998 colon, 9.6 µM; in the test with HL-60(TB) leukemia, 3.97 µM. Further, the GI50 with NCI-H460 lung was 3.98 µM; in the test on SF-268 CNS, 5.43 µM; in the test on U251 CNS, 4.58 µM. Moreover, the TGI with SW-620 colon, with OVCAR-8 ovarian, in the test with PC-3 prostate, with NCI-H522 lung, in the test with HCC-2998 colon and in the test with HL-60(TB) leukemia was more than 100 µM throughout. Moreover, the TGI in the test on NCI-H460 lung, in the test with SF-268 CNS and in the test on U251 CNS was more than 100 µM each time.

As to `CCC(=O)CC(=O)CCC(=O)Nc1cc(C)ccc1C`, the TGI in the test with SW-620 colon, in the test on OVCAR-8 ovarian, in the test with NCI-H522 lung, in the test with HL-60(TB) leukemia, in the test with NCI-H460 lung and in the test on SF-268 CNS was more than 100 µM each time. In the test on U251 CNS, the TGI is more than 100 µM.

With `O=C1CCC(Cl)=CC2CCCN12` (centres undefined), the TGI with SW-620 colon, in the test with OVCAR-8 ovarian, in the test with HCC-2998 colon, with HL-60(TB) leukemia, in the test with NCI-H460 lung and with U251 CNS was more than 100 µM in each case.

Consider `N#CN/C(N)=N/CO`, for which the TGI with SW-620 colon was more than 56.3 µM; in the test with OVCAR-8 ovarian, more than 100 µM; in the test with NCI-H522 lung, more than 100 µM; with HCC-2998 colon, more than 100 µM; in the test with HL-60(TB) leukemia it was more than 100 µM; with NCI-H460 lung it was more than 100 µM. For the same compound, the TGI in the test with SF-268 CNS was more than 100 µM; in the test with U251 CNS it was more than 90.2 µM.

Regarding `CC(C)(C)NNC(=O)CCn1[nH]c(=O)c(Cl)c(Cl)c1=O`, the TGI in the test on SW-620 colon, in the test with OVCAR-8 ovarian, in the test with NCI-H522 lung, in the test with HCC-2998 colon, in the test with HL-60(TB) leukemia and with NCI-H460 lung was more than 100 µM each time. Moreover, the TGI in the test on SF-268 CNS and in the test on U251 CNS was more than 100 µM each time.

With `NC(N)=N/N=C/c1c(-c2ccsc2)nc2sccn12`, the GI50 in the test with SW-620 colon is 18.3 µM; in the test with OVCAR-8 ovarian, 31.1 µM; with PC-3 prostate it was 13.2 µM; in the test on NCI-H522 lung, 12.2 µM; in the test with HL-60(TB) leukemia it was 16.3 µM; with NCI-H460 lung, 14.8 µM. For the same compound, the GI50 with SF-268 CNS is 15.3 µM; with U251 CNS, 15.8 µM. Besides, the TGI with SW-620 colon was 43.1 µM; with OVCAR-8 ovarian it was 61.7 µM; in the test on PC-3 prostate, 26 µM; with NCI-H522 lung, 30.5 µM; in the test on HL-60(TB) leukemia, 56.4 µM; in the test with NCI-H460 lung, 28 µM. For the same compound, the TGI is 29.4 µM in the test on SF-268 CNS and 30 µM with U251 CNS.

On to `COc1ccc2occ(CCC(=O)O)c2c1`, for which the TGI with SW-620 colon, with OVCAR-8 ovarian, with HCC-2998 colon, in the test on HL-60(TB) leukemia, in the test on NCI-H460 lung and in the test with U251 CNS was more than 100 µM in each case.

For the compound `Clc1ccc2c(c1)[nH]c1c2nc2ccccn21`, the TGI in the test on SW-620 colon was 38.3 µM and 45.3 µM; in the test on OVCAR-8 ovarian, > 100 µM and 33.1 µM; in the test with NCI-H522 lung, 45.6 µM and 39.6 µM; with HCC-2998 colon it was 63.3 µM and 13.8 µM; with NCI-H460 lung, > 100 µM and 35.9 µM; in the test with SF-268 CNS, 87.7 µM and 37.1 µM. In addition, the TGI in the test with U251 CNS is > 100 µM and 24.5 µM. Further, the GI50 in the test with OVCAR-8 ovarian is 44.5 µM and 17 µM; in the test with NCI-H460 lung it was 44.3 µM and 17.4 µM; in the test on U251 CNS, > 100 µM and 11.9 µM.

Consider `CC1=C(C(=O)Nc2ccc(F)c(Cl)c2)C(c2ccccc2O)NC(=S)N1` (centres undefined), for which the GI50 in the test with SW-620 colon is more than 50 µM; in the test on OVCAR-8 ovarian it was 12.9 µM; in the test with PC-3 prostate it was 40.6 µM; in the test on NCI-H522 lung it was more than 50 µM; in the test with HL-60(TB) leukemia, more than 50 µM; in the test on NCI-H460 lung, 21.4 µM. Moreover, the figures for the GI50 in the test with SF-268 CNS and in the test with U251 CNS were 9.43 µM and 30.2 µM, respectively. The TGI in the test with SW-620 colon, in the test with OVCAR-8 ovarian, in the test with PC-3 prostate, in the test with NCI-H522 lung, with HL-60(TB) leukemia and with NCI-H460 lung was more than 50 µM each time. Besides, the TGI in the test on SF-268 CNS and in the test with U251 CNS was more than 50 µM throughout.

On to `O=C(Nc1ccn(CCO)c(=O)n1)c1ccccc1`, for which the TGI with SW-620 colon, in the test on OVCAR-8 ovarian, with NCI-H522 lung, with HL-60(TB) leukemia, in the test with NCI-H460 lung and in the test on SF-268 CNS was more than 100 µM in each case. Besides, the TGI in the test on U251 CNS was more than 100 µM.

As to `Cc1ccc(S(=O)(=O)N(C=O)N=C2CCN(Cc3ccccc3)CC2)cc1`, the concentration for total growth inhibition (TGI) in the test on SW-620 colon, in the test on OVCAR-8 ovarian, in the test with NCI-H522 lung, in the test with HCC-2998 colon, in the test with HL-60(TB) leukemia and in the test on NCI-H460 lung was more than 100 µM in each case. The same compound showed a TGI in the test on U251 CNS of more than 100 µM.
